Where a name gives a salt, the structure may show the parent alone.
These compounds were tested against truncated PI3Kα (p110α/iSH2 p85α) (Homo sapiens (Human), UniProt P42336) (assay: PI3KA_Act fluorescence polarization kinase assay (Ki)). Settings: 1 mM ATP.
Type: biochemical
How it was run: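 Ki values result from fitting fluorescence polarization signals to the Morrison equation for tight-binding competitive inhibitors. The detector was GST-Grp1 PH domain with TAMRA-PIP3, read after a 30 min room-temperature reaction of 0.5 nM truncated PI3Kα and 30 μM PIP2 at pH 7.4 in HEPES/NaCl/MgCl2/DTT/CHAPS buffer. Compounds were tested as 12-point 3-fold dilutions from 3 μM.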

Chain of truncated PI3Kα (p110α/iSH2 p85α) (P42336 whole entry, the tested form may be a part): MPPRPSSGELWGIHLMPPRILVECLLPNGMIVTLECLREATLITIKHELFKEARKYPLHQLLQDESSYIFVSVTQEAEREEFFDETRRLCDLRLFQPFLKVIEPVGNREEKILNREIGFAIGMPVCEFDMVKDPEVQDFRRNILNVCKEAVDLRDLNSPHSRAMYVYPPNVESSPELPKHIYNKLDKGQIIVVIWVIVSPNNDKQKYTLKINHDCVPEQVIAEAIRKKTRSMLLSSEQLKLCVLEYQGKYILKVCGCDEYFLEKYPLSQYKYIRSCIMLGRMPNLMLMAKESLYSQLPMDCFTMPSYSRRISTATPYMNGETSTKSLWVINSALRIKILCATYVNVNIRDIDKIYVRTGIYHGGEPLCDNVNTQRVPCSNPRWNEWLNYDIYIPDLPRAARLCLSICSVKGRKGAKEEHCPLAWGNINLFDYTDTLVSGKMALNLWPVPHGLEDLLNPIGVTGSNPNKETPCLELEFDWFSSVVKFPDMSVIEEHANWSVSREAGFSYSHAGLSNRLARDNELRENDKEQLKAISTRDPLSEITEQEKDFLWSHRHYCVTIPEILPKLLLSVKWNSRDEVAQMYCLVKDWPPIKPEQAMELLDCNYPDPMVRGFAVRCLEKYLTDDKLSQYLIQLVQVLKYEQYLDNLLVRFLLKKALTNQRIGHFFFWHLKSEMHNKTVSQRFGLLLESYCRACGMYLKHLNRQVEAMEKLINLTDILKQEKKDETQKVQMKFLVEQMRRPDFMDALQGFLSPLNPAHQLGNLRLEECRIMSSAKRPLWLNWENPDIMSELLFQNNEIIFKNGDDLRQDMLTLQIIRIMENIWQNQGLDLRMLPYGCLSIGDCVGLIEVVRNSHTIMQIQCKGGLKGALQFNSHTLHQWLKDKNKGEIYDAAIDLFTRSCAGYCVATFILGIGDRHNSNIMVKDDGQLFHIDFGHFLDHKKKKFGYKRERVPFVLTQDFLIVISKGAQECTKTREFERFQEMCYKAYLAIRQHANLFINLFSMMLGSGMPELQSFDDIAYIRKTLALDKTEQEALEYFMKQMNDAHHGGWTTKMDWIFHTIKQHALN

Point of comparison: `C[C@H]1COCCN1c1nc(-c2cnc(N)nc2)c2c(n1)N([C@]13CNC[C@H]1C3)CC2.Cl` [Example 530, 5-{7-[(1S,5R)-3-azabicyclo[3.1.0]hex-1-yl]-2-[(3S)-3-methylmorpholin-4-yl]-6,7-dihydro-5H-pyrrolo[2,3-d]pyrimidin-4-yl}pyrimidin-2-amine hydrochloride], “PI3KA_Act Ki” value 2.624 nM. Against it:
- CC(=O)N1CC[C@@](C)(N2CCc3c(-c4cnc(N)nc4)nc(N4CCOCC4)nc32)C1 [Example 259, 1-{(3R)-3-[4-(2-aminopyrimidin-5-yl)-2-(morpholin-4-yl)-5,6-dihydro-7H-pyrrolo[2,3-d]pyrimidin-7-yl]-3-methylpyrrolidin-1-yl}ethanone] — 19-fold lower, 0.139 nM
- COCCCS(=O)(=O)N1CC(N2CCc3c(-c4cnc(N)nc4)nc(N4CCOCC4)nc32)C1 [Example 161] — 13-fold lower, 0.202 nM
- C[C@]1(N2CCc3c(-c4cnc(N)nc4)nc(N4CCOCC4)nc32)CCN(C(=O)N2CC(O)C2)C1 [Example 366, {(3S)-3-[4-(2-aminopyrimidin-5-yl)-2-(morpholin-4-yl)-5,6-dihydro-7H-pyrrolo[2,3-d]pyrimidin-7-yl]-3-methylpyrrolidin-1-yl}(3-hydroxyazetidin-1-yl)methanone] — 120-fold lower, 0.021 nM
- CC(C)[C@@H](O)C(=O)N1CC[C@](C)(N2CCc3c(-c4cnc(N)nc4)nc(N4CCOC[C@@H]4C)nc32)C1 [Example 472, (2R)-1-[(3S)-3-{4-(2-aminopyrimidin-5-yl)-2-[(3S)-3-methylmorpholin-4-yl]-5,6-dihydro-7H-pyrrolo[2,3-d]pyrimidin-7-yl}-3-methylpyrrolidin-1-yl]-2-hydroxy-3-methylbutan-1-one] — 60-fold lower, 0.044 nM
- C[C@]1(N2CCc3c(-c4cnc(N)nc4)nc(N4CCOCC4)nc32)CCN(C(=O)[C@@]2(C)CCN2)C1 [Example 351, {(3S)-3-[4-(2-aminopyrimidin-5-yl)-2-(morpholin-4-yl)-5,6-dihydro-7H-pyrrolo[2,3-d]pyrimidin-7-yl]-3-methylpyrrolidin-1-yl}[(2R)-2-methylazetidin-2-yl]methanone] — 44-fold lower, 0.059 nM
- CC(C)(C)OC(=O)N1CC[C@@](C)(N2CCc3c(-c4cnc(N)nc4)nc(N4CCOCC4)nc32)C1 [Example 195] — 16-fold lower, 0.166 nM
- C[C@H]1COCCN1c1nc(-c2cnc(N)nc2)c2c(n1)N([C@@]1(C)CCN(C(=O)C(C)(C)O)C1)CC2 [Example 473, 1-[(3S)-3-{4-(2-aminopyrimidin-5-yl)-2-[(3S)-3-methylmorpholin-4-yl]-5,6-dihydro-7H-pyrrolo[2,3-d]pyrimidin-7-yl}-3-methylpyrrolidin-1-yl]-2-hydroxy-2-methylpropan-1-one] — 35-fold lower, 0.076 nM
- CCS(=O)(=O)N1CC(C)(N2CCc3c(-c4cnc(N)nc4)nc(N4CCOCC4)nc32)C1 [Example 196] — 110-fold lower, 0.024 nM
- CC(C)(C)NC(=O)N1CC[C@@](C)(N2CCc3c(-c4cnc(N)nc4)nc(N4CCOCC4)nc32)C1 [Example 396, (3R)-3-[4-(2-aminopyrimidin-5-yl)-2-(morpholin-4-yl)-5,6-dihydro-7H-pyrrolo[2,3-d]pyrimidin-7-yl]-N-tert-butyl-3-methylpyrrolidine-1-carboxamide] — 22-fold lower, 0.121 nM
- C[C@H]1COCCN1c1nc(-c2cnc(N)nc2)c2c(n1)N(C1(C)CCN(C(=O)OC(C)(C)C)CC1)CC2 [Example 519, tert-butyl 4-{4-(2-aminopyrimidin-5-yl)-2-[(3S)-3-methylmorpholin-4-yl]-5,6-dihydro-7H-pyrrolo[2,3-d]pyrimidin-7-yl}-4-methylpiperidine-1-carboxylate] — 73-fold lower, 0.036 nM
- C[C@@H]1COCCN1c1nc(-c2cnc(N)nc2)c2c(n1)N([C@@]1(C)CCN(S(C)(=O)=O)C1)CC2 [Example 231] — 1.8-fold lower, 1.493 nM
- CNC(=O)N1CC[C@](C)(N2CCc3c(-c4cnc(N)nc4)nc(N4CCOCC4)nc32)C1 [Example 216] — 21-fold lower, 0.124 nM
- C[C@H]1COCCN1c1nc(-c2cnc(N)nc2)c2c(n1)N([C@@]1(C)CCN(C(=O)[C@@H](N)CF)C1)CC2.Cl [Example 479, (2R)-2-amino-1-[(3S)-3-{4-(2-aminopyrimidin-5-yl)-2-[(3S)-3-methylmorpholin-4-yl]-5,6-dihydro-7H-pyrrolo[2,3-d]pyrimidin-7-yl}-3-methylpyrrolidin-1-yl]-3-fluoropropan-1-one hydrochloride] — 100-fold lower, 0.026 nM
- CNC(=O)N1CC(C)(N2CCc3c(-c4cnc(N)nc4)nc(N4CCOCC4)nc32)C1 [Example 250, 3-[4-(2-aminopyrimidin-5-yl)-2-(morpholin-4-yl)-5,6-dihydro-7H-pyrrolo[2,3-d]pyrimidin-7-yl]-N,3-dimethylazetidine-1-carboxamide] — 22-fold lower, 0.120 nM
- tert-butyl (trans-3-{4-(2-aminopyrimidin-5-yl)-2-[(3S)-3-methylmorpholin-4-yl]-5,6-dihydro-7H-pyrrolo[2,3-d]pyrimidin-7-yl}cyclobutyl)methylcarbamate [Example 449] — 8.9-fold lower, 0.294 nM
- CC(C)(C)OC(=O)N1CC[C@H]1C(=O)N1CC[C@](C)(N2CCc3c(-c4cnc(N)nc4)nc(N4CCOCC4)nc32)C1 [Example 370, tert-butyl (2S)-2-({(3S)-3-[4-(2-aminopyrimidin-5-yl)-2-(morpholin-4-yl)-5,6-dihydro-7H-pyrrolo[2,3-d]pyrimidin-7-yl]-3-methylpyrrolidin-1-yl}carbonyl)azetidine-1-carboxylate] — 14-fold lower, 0.184 nM
- C[C@H]1COCCN1c1nc(-c2cnc(N)nc2)c2c(n1)N([C@H]1[C@@H]3CN(C(=O)OC(C)(C)C)C[C@@H]31)CC2 [Example 521, tert-butyl (1R,5S,6s)-6-{4-(2-aminopyrimidin-5-yl)-2-[(3S)-3-methylmorpholin-4-yl]-5,6-dihydro-7H-pyrrolo[2,3-d]pyrimidin-7-yl}-3-azabicyclo[3.1.0]hexane-3-carboxylate] — 15-fold lower, 0.170 nM
- CN1CCC(N2CC[C@](C)(N3CCc4c(-c5cnc(N)nc5)nc(N5CCOCC5)nc43)C2)C1=O (single isomer, unassigned) [Example 427] — 36-fold lower, 0.073 nM
- CCC(C)(O)C(=O)N1CC[C@](C)(N2CCc3c(-c4cnc(N)nc4)nc(N4CCOCC4)nc32)C1 (single isomer, unassigned) [Example 274] — 18-fold lower, 0.145 nM
- C[C@H]1COCCN1c1nc(-c2cnc(N)nc2)c2c(n1)N([C@H]1C[C@@H](NC(=O)OC(C)(C)C)C1)CC2 [Example 447, tert-butyl (cis-3-{4-(2-aminopyrimidin-5-yl)-2-[(3S)-3-methylmorpholin-4-yl]-5,6-dihydro-7H-pyrrolo[2,3-d]pyrimidin-7-yl}cyclobutyl)carbamate] — 4.1-fold lower, 0.644 nM
- C[C@H]1COCCN1c1nc(-c2cnc(N)nc2)c2c(n1)N([C@@]1(C)CCN(C(=O)C(C)(N)CO)C1)CC2.Cl (stereo partly drawn) [Example 487, 2-amino-1-[(3S)-3-{4-(2-aminopyrimidin-5-yl)-2-[(3S)-3-methylmorpholin-4-yl]-5,6-dihydro-7H-pyrrolo[2,3-d]pyrimidin-7-yl}-3-methylpyrrolidin-1-yl]-3-hydroxy-2-methylpropan-1-one hydrochloride] — 240-fold lower, 0.011 nM
- COCCCS(=O)(=O)N1CC(N2CCc3c(-c4cnc(N)nc4)nc(N4CCOC[C@@H]4C)nc32)C1 [Example 153] — 25-fold lower, 0.105 nM
- C[C@@]1(N2CCc3c(-c4cnc(N)nc4)nc(N4CCOCC4)nc32)CCN(C(=O)C(O)C2CC2)C1 (single isomer, unassigned) [Example 326] — 55-fold lower, 0.048 nM
- CC(C)S(=O)(=O)N1CC(C)(N2CCc3c(-c4cnc(N)nc4)nc(N4CCOCC4)nc32)C1 [Example 198] — 110-fold lower, 0.024 nM

Point of comparison: `CC(C)(C)OC(=O)N1C[C@@H]2C[C@H]1[C@H]2N1CCc2c(-c3cnc(N)nc3)nc(N3CCOCC3)nc21` [Example 438, tert-butyl (1S,4S,5S)-5-[4-(2-aminopyrimidin-5-yl)-2-(morpholin-4-yl)-5,6-dihydro-7H-pyrrolo[2,3-d]pyrimidin-7-yl]-2-azabicyclo[2.1.1] hexane-2-carboxylate], Ki 7.45 nM. Against it:
- [2H]C1([2H])OC([2H])([2H])C([2H])([2H])N(c2nc(-c3cnc(N)nc3)c3c(n2)N([C@@]2(C)CCN(C(=O)C(C)(C)N)C2)CC3)C1([2H])[2H] [Example 10, (S)-2-amino-1-(3-(4-(2-aminopyrimidin-5-yl)-2-morpholino-d8)-5,6-dihydro-7H-pyrrolo[2,3-d]pyrimidin-7-yl)-3-methylpyrrolidin-1-yl)-2-methylpropan-1-one hydrochloride] — lower, < 0.018 nM
- CS(=O)(=O)N1C[C@H]2C[C@@H]1[C@@H]2N1CCc2c(-c3cnc(N)nc3)nc(N3CCOCC3)nc21 (single isomer, unassigned) [Example 440] — 42-fold lower, 0.178 nM

In the case of `Cc1n[nH]cc1C(=O)N1CC[C@](C)(N2CCc3c(-c4cnc(N)nc4)nc(N4CCOCC4)nc32)C1` [Example 386, {(3S)-3-[4-(2-aminopyrimidin-5-yl)-2-(morpholin-4-yl)-5,6-dihydro-7H-pyrrolo[2,3-d]pyrimidin-7-yl]-3-methylpyrrolidin-1-yl}(3-methyl-1H-pyrazol-4-yl)methanone], the “PI3KA_Act Ki” value is reported as <0.018 nM.
With `CC(C)OC(=O)N1CC[C@](C)(N2CCc3c(-c4cnc(N)nc4)nc(N4CCOCC4)nc32)C1` [Example 406, propan-2-yl (3S)-3-[4-(2-aminopyrimidin-5-yl)-2-(morpholin-4-yl)-5,6-dihydro-7H-pyrrolo[2,3-d]pyrimidin-7-yl]-3-methylpyrrolidine-1-carboxylate] the “PI3KA_Act Ki” value was <0.018 nM.

From patent US9260439B2, “Dihydropyrrolopyrimidine derivatives” (PFIZER INC., priority 2014, dated 2016)
